The values that follow come from US20100324285A1, “ANTIINFLAMMATORY AGENT COMPRISING 2-AMINOPHENOL OR DERIVATIVE THEREOF AS ACTIVE INGREDIENT” (priority 2006, published 2010).

The subject of data set [1] is NHDF, normal fibroblast from human fetus. Briefly: Cytopathic test, alamar Blue. To be noted: 6 days; for Cell survival rate (%), AA-2G free: no AA-2G; for Cell survival rate (%), AA-2G addition: with AA-2G. It counts as cell-based. Here is the method: Cells were cultured with test samples and D-MEM medium supplemented with 10 (v/v) % FCS with or without AA-2G for 6 days by the same method as above, and the supernatant was removed, washed with phosphate buffered saline (PBS(−)), and admixed with alamar Blue (commercialized by TREK Diagnostic Systems, Inc.), which had been diluted by 10-fold with D-MEM medium in a volume of 200 μl per well. After culturing at 37° C. for 90 minutes, the fluorescence intensity (exciting light: 544 nm, fluorescence: 590 nm) was measured. The cell survival rate (%) was calculated by dividing the fluorescence intensity of a well with a test sample by the fluorescence intensity of a well with a control sample, and multiplying by 100.
For orientation: Damage to the host cells serves as the signal in cytopathic effect assays.

Another data set concerns β-hexosaminidase. Briefly: Direct inhibition of β-hexosaminidase activity of whole granule extract. As to conditions: 40 μM added. It is filed as biochemical, rat. Here is the method: Separately, the whole granule extract described above was injected into a 96-well microplate by 50 μl per well. Each well was admixed with 50 μl of 0.1 M citrate buffer (pH 4.5) containing 1 mM PNAC and warmed at 37° C. for one hour. The reaction was stopped by adding 50 μl of 0.1 M sodium carbonate (pH 10.5), measuring the absorbance at 405 to 650 nm. As control, the same measurement as described above was carried out using BSA-containing Siraganian buffer alone. […] The resultant data was obtained by averaging the measurement values from 3 wells each of the test sample or the whole granule extract.

The subject of the next data set is iNOS. Briefly: Amount of iNOS in cell extracts, western blotting. To be noted: RAW264.7 cell extracts of Experiment 2, anti-iNOS antibody. It counts as cell-based, mouse. Here is the method: In addition, the amount of iNOS in the cell extracts of this experiment was measured by western blotting analysis using an anti-iNOS antibody.
(In general: A western blot detects proteins with antibodies after separation by electrophoresis.)

A further data set addresses T1, COX-1 (Ovis aries, UniProt P05979).
T1 construct: purchased Cayman Chemical Company
T1 sequence (P05979 25-600): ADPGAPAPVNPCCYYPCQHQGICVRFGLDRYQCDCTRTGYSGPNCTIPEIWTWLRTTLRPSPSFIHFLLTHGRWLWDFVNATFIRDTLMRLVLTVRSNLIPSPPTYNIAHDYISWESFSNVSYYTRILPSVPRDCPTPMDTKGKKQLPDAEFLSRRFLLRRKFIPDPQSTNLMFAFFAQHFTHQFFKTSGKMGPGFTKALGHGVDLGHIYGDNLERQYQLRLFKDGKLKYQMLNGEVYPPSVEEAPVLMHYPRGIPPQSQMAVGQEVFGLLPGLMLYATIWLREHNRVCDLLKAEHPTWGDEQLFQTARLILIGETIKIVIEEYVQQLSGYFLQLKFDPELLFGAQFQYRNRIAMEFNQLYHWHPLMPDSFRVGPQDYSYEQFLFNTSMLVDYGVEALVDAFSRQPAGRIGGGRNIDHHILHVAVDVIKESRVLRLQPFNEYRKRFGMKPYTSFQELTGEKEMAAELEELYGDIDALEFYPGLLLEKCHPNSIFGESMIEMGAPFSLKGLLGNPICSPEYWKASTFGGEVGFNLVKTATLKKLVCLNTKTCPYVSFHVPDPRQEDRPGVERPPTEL
Briefly: COX Inhibitor Screening Assay Kit, COX-1. It counts as biochemical. The text has this:
Fifty percent inhibitory concentration (IC50) means the concentration of test sample necessary for inhibiting PGE2 synthesis by 50% compared to non-inhibitory control sample. It can be also determined by measuring the amount of PGE2 produced by adding test samples to cells having cyclooxygenase activity. COX-1/COX-2 ratio means the ratio of […], and the higher the ratio is, the more specific to COX-2 the agent is.
To verify the results of Experiment 2, it was investigated that whether the activity of COXs, essential enzymes for PGE2 synthesis system, can be inhibited. […] An experimental system without the test samples was set as control. The residual activity of COX-1 or COX-2 was determined as relative activity versus control.

The next data set has as its system RAW264.7 cells. Description: Macrophage growth, living cell count. It counts as cell-based, mouse. As to conditions: 2 days, relative level versus control. The text has this: RAW264.7 cells, a murine macrophage cell strain, were suspended in PRMI1640 medium supplied with 10% (v/v) fetal calf serum (hereinafter abbreviated as “FCS”) to give a cell suspension with a cell concentration of 1×10^6 cells/ml. […] The experimental system without the test samples described above was set as control. […] NO production, PGE2 production and macrophage growth are indicated as relative levels versus controls.

The mark [2] stands for this setting: read-out: residual activity of COX-1.

In general, IC50 refers to the midpoint of a concentration-inhibition curve. For the compound `Nc1cc2nc3ccccc3oc-2cc1=O` [2-Aminophenoxazine-3-one, 2-aminophenoxazine-3-one], the “Cell survival rate (%), AA-2G free” value in data set [1] (QA 0.125 μM) came out at 101%; in data set [1] (QA 0.25 μM), 103%; in data set [1] (QA 0.5 μM), 99%; in data set [1] (QA 1.0 μM), 92%; in data set [1] (QA 2.0 μM), 88%. Moreover, the “Cell survival rate (%), AA-2G addition” value amounted to 100% in data set [1] (QA 0.125 μM); 100% in data set [1] (QA 0.25 μM); 92% in data set [1] (QA 0.5 μM); 79% in data set [1] (QA 1.0 μM); 73% in data set [1] (QA 2.0 μM). Besides, the “inhibition rate of β-hexosaminidase activity” value in the data set on β-hexosaminidase is listed as −9.9%. In the data set with iNOS, the “amount of iNOS” value was “decreased depending on the 2-aminophenoxazine-3-one concentration”. On COX-1 (PGE2 from arachidonic acid, read-out: IC50 COX-1), the IC50 was 6.44 µM. At COX-1 (setting [2]), the remaining activity at 1.9 µM stood at 89%. Also, on COX-1 (setting [2]), the remaining activity at 3.8 µM amounted to 59%. Besides, at COX-1 (setting [2]), the remaining activity at 7.6 µM came out at 44%. The “Macrophage growth (%)” value in the data set with RAW264.7 cells (0.16 μM) stood at 117%; in the data set with RAW264.7 cells (0.31 μM), 121%; with RAW264.7 cells (0.63 μM), 127%; in the data set on RAW264.7 cells (1.3 μM) it was 127%; in the data set with RAW264.7 cells (2.5 μM), 119%; with RAW264.7 cells (5.0 μM), 112%. For the same compound, the “Macrophage growth (%)” value in the data set with RAW264.7 cells (10 μM) came to 86%.
